Reference: ChEMBL document CHEMBL1152415, “Potent antitumor bifunctional DNA alkylating agents, synthesis and biological activities of 3a-aza-cyclopenta[a]indenes” (Bioorg Med Chem, 2009)
Calls of active or inactive are those of the source. The calls are words filed in the database; no cut-off is given here.

Tests used:
MX1 [1] = assay: Cytotoxicity against human MX1 cells after 72 hrs by SRB assay; type: functional, cell-based; conditions: MX1, 72 h
MX1 [2] = assay: Antitumor activity in human MX1 cells xenografted athymic nu/nu mouse assessed as complete remission of tumor at 5 mg/kg, iv administered daily once for 3 days; type: functional, organism-based; set-up: dose 5 mg/kg
MX1 [3] = assay: Antitumor activity in human MX1 cells xenografted athymic nu/nu mouse assessed as complete remission of tumor at 15 mg/kg, iv administered daily twice for 4 days; type: functional, organism-based; set-up: dose 15 mg/kg
SK-OV-3 [4] = assay: Antitumor activity in human SKOV3 cells xenografted athymic nu/nu mouse assessed as tumor suppression at 20 mg/kg, iv administered daily once for 4 days measured after 22 days relative to control; type: functional
CCRF-CEM [5] = assay: Cytotoxicity against human CCRF-CEM cells after 72 hrs by XTT assay; type: functional, cell-based; conditions: read-out: IC50
Nucleic Acid [6] = assay: Induction of pEGFP-N1 plasmid DNA interstrand cross-linking at 1 uM after 2 hrs by alkaline agarose gel shift assay; type: nucleic-acid assay
HCT-116 = assay: Cytotoxicity against human HCT116 cells after 72 hrs by SRB assay; type: functional, cell-based; conditions: HCT-116, 72 h
Nucleic Acid [7] = assay: Induction of pEGFP-N1 plasmid DNA interstrand cross-linking at 10 uM after 2 hrs by alkaline agarose gel shift assay; type: nucleic-acid assay
[8] = Cytotoxicity against human OECM1 cells after 72 hrs by WST-1 assay; type: functional, cell-based; conditions: OECM1, 72 h
CCRF-CEM [9] = assay: Cytotoxicity against human taxol-resistant CCRF-CEM cells after 72 hrs by XTT assay; type: functional, cell-based
MX1 [10] = assay: Antitumor activity in human MX1 cells xenografted athymic nu/nu mouse assessed as complete remission of tumor at 50 mg/kg, iv administered daily once for 3 days; type: functional, organism-based; set-up: dose 50 mg/kg
[11] = Toxicity in athymic nu/nu mouse assessed as maximum tolerated dose; type: organism-based; conditions: in vivo, read-out: Activity
MX1 [12] = assay: Antitumor activity in human MX1 cells xenografted athymic nu/nu mouse assessed as complete remission of tumor at 18 mg/kg, iv administered daily twice for 2 days; type: functional, organism-based; set-up: dose 18 mg/kg
[13] = Cytotoxicity against human H1299 cells after 72 hrs by WST-1 assay; type: functional, cell-based; conditions: NCI-H1299, 72 h
MX1 [14] = assay: Antitumor activity in human MX1 cells xenografted athymic nu/nu mouse assessed as tumor re-growth at 18 mg/kg, iv administered daily twice for 2 days measured after 40 days of tumor implantation; type: functional, organism-based; set-up: dose 18 mg/kg
PC-3 [15] = assay: Cytotoxicity against human PC3 cells after 72 hrs by WST-1 assay; type: functional, cell-based; conditions: PC-3, 72 h
[16] = Cytotoxicity against human U87 cells after 72 hrs by WST-1 assay; type: functional, cell-based, U-87MG ATCC; conditions: U-87 MG
Nucleic Acid [17] = assay: Induction of pEGFP-N1 plasmid DNA interstrand cross-linking at 20 uM after 2 hrs by alkaline agarose gel shift assay; type: nucleic-acid assay
CCRF-CEM [18] = assay: Cytotoxicity against human vinblastine-resistant CCRF-CEM cells after 72 hrs by XTT assay; type: functional, cell-based
CCRF-CEM [19] = assay: Cross-resistance, IC50 for human vinblastine-resistant CCRF-CEM cells to IC50 for human CCRF-CEM cells; type: functional
MX1 [20] = assay: Antitumor activity in human MX1 cells xenografted athymic nu/nu mouse assessed as complete remission of tumor at 15 mg/kg, iv administered daily twice for 4 days measured after 18 days of tumor implantation; type: functional, organism-based; set-up: dose 15 mg/kg
CCRF-CEM [21] = assay: Cross-resistance, IC50 for human taxol-resistant CCRF-CEM cells to IC50 for human CCRF-CEM cells; type: functional
PC-3 [22] = assay: Antitumor activity in human PC3 cells xenografted athymic nu/nu mouse assessed as complete tumor suppression at 50 mg/kg, iv administered daily once for 4 days measured after day 14 to day 32; type: functional, organism-based; set-up: dose 50 mg/kg
MX1 [23] = assay: Antitumor activity in human MX1 cells xenografted athymic nu/nu mouse assessed as tumor re-growth at 50 mg/kg, iv administered daily once for 3 days measured after 24 days of tumor implantation; type: functional, organism-based; set-up: dose 50 mg/kg
Mus musculus = assay: Toxicity in human PC3 cells xenografted athymic nu/nu mouse assessed as weight loss at 50 mg/kg, iv administered daily once for 4 days measured after day 14 to day 32 relative to control; type: organism-based, PC-3; set-up: dose 50 mg/kg, route intravenous; conditions: in vivo, 96 h
SK-OV-3 [24] = assay: Antitumor activity in human SKOV3 cells xenografted athymic nu/nu mouse assessed as tumor suppression at 50 mg/kg, iv administered daily once for 3 days measured after 22 days relative to control; type: functional
MX1 [25] = assay: Antitumor activity in human MX1 cells xenografted athymic nu/nu mouse assessed as complete remission of tumor at 50 mg/kg, iv administered daily once for 3 days measured after 24 days of tumor implantation; type: functional, organism-based; set-up: dose 50 mg/kg
MX1 [26] = assay: Antitumor activity in human MX1 cells xenografted athymic nu/nu mouse assessed as complete remission of tumor at 5 mg/kg, iv administered daily once for 3 days measured after 22 days of tumor implantation; type: functional, organism-based; set-up: dose 5 mg/kg

**Q.** For `Cc1c(CO)c(CO)c2n1-c1ccccc1C2`, which IC50 (MX1 [1]) is on record?
**A.** 360 nM

**Q.** What about the Activity (MX1 [2]) of the same compound?
**A.** Active

**Q.** What about the Activity (MX1 [3]) of the same compound?
**A.** Active

**Q.** And the Activity (SK-OV-3 [4])?
**A.** 53%

**Q.** What about the IC50 (CCRF-CEM [5]) of the same compound?
**A.** 10 nM

**Q.** What about the Activity (Nucleic Acid [6]) of the same compound?
**A.** Active

**Q.** What about the IC50 (HCT-116) of the same compound?
**A.** 340 nM

**Q.** What about the Activity (Nucleic Acid [7]) of the same compound?
**A.** Active

**Q.** What about the IC50 [8] of the same compound?
**A.** 860 nM

**Q.** And the IC50 (CCRF-CEM [9])?
**A.** 32 nM

**Q.** And the Activity (MX1 [10])?
**A.** Active

**Q.** And the MTD [11]?
**A.** 18 mg/kg

**Q.** What about the Activity (MX1 [12]) of the same compound?
**A.** Active

**Q.** And the IC50 [13]?
**A.** 15.2 µM

**Q.** And the Activity (MX1 [14])?
**A.** inactive

**Q.** And the IC50 (PC-3 [15])?
**A.** 19.7 µM

**Q.** And the IC50 [16]?
**A.** 19.3 µM

**Q.** What about the Activity (Nucleic Acid [17]) of the same compound?
**A.** Active

**Q.** And the IC50 (CCRF-CEM [18])?
**A.** 67 nM

**Q.** For `CNC(=O)OCc1c(COC(=O)NC)c(-c2ccccc2OC)n2c1Cc1ccccc1-2`, which IC50 (MX1 [1]) is on record?
**A.** 1300 nM

**Q.** What about the Activity (MX1 [2]) of the same compound?
**A.** Active

**Q.** What about the Activity (MX1 [3]) of the same compound?
**A.** Active

**Q.** What about the IC50 (CCRF-CEM [5]) of the same compound?
**A.** 140 nM

**Q.** And the Activity (Nucleic Acid [6])?
**A.** Active

**Q.** What about the IC50 (HCT-116) of the same compound?
**A.** 150 nM

**Q.** And the Activity (Nucleic Acid [7])?
**A.** Active

**Q.** And the “Ratio IC50” value (CCRF-CEM [19])?
**A.** 2.7

**Q.** And the Activity (MX1 [20])?
**A.** Active

**Q.** And the IC50 (CCRF-CEM [9])?
**A.** 250 nM

**Q.** What about the Activity (MX1 [10]) of the same compound?
**A.** Active

**Q.** What about the MTD [11] of the same compound?
**A.** 15 mg/kg

**Q.** What about the “Ratio IC50” value (CCRF-CEM [21]) of the same compound?
**A.** 1.8

**Q.** And the Activity (MX1 [12])?
**A.** Active

**Q.** And the Activity (Nucleic Acid [17])?
**A.** Active

**Q.** What about the IC50 (CCRF-CEM [18]) of the same compound?
**A.** 360 nM

**Q.** With `CCc1c(CO)c(CO)c2n1-c1ccccc1C2` as the compound, how does the IC50 (MX1 [1]) read?
**A.** 1100 nM

**Q.** And the Activity (MX1 [2])?
**A.** Active

**Q.** What about the Activity (PC-3 [22]) of the same compound?
**A.** Active

**Q.** What about the Activity (MX1 [3]) of the same compound?
**A.** Active

**Q.** And the Activity (MX1 [23])?
**A.** inactive

**Q.** And the IC50 (CCRF-CEM [5])?
**A.** 360 nM

**Q.** And the Activity (Nucleic Acid [6])?
**A.** Active

**Q.** What about the Activity (Mus musculus) of the same compound?
**A.** 15%

**Q.** What about the IC50 (HCT-116) of the same compound?
**A.** 830 nM

**Q.** And the Activity (Nucleic Acid [7])?
**A.** Active

**Q.** What about the “Ratio IC50” value (CCRF-CEM [19]) of the same compound?
**A.** 0.64

**Q.** What about the IC50 [8] of the same compound?
**A.** 1240 nM

**Q.** What about the IC50 (CCRF-CEM [9]) of the same compound?
**A.** 140 nM

**Q.** What about the Activity (SK-OV-3 [24]) of the same compound?
**A.** 78%

**Q.** And the Activity (MX1 [10])?
**A.** Active

**Q.** What about the MTD [11] of the same compound?
**A.** 50 mg/kg

**Q.** What about the “Ratio IC50” value (CCRF-CEM [21]) of the same compound?
**A.** 0.39

**Q.** And the Activity (MX1 [12])?
**A.** Active

**Q.** And the IC50 [13]?
**A.** 14.1 µM

**Q.** What about the IC50 (PC-3 [15]) of the same compound?
**A.** 16.6 µM

**Q.** What about the IC50 [16] of the same compound?
**A.** 18.2 µM

**Q.** And the Activity (Nucleic Acid [17])?
**A.** Active

**Q.** And the Activity (MX1 [25])?
**A.** Active

**Q.** And the IC50 (CCRF-CEM [18])?
**A.** 230 nM

**Q.** Which IC50 (MX1 [1]) does the source give for `CNC(=O)OCc1c(COC(=O)NC)c(-c2ccc(OC)cc2)n2c1Cc1ccccc1-2` here?
**A.** 1900 nM

**Q.** What about the Activity (MX1 [2]) of the same compound?
**A.** Active

**Q.** What about the Activity (MX1 [3]) of the same compound?
**A.** Active

**Q.** And the IC50 (CCRF-CEM [5])?
**A.** 49 nM

**Q.** And the Activity (Nucleic Acid [6])?
**A.** Active

**Q.** And the Activity (MX1 [26])?
**A.** Active

**Q.** And the IC50 (HCT-116)?
**A.** 2600 nM

**Q.** And the Activity (Nucleic Acid [7])?
**A.** Active

**Q.** What about the “Ratio IC50” value (CCRF-CEM [19]) of the same compound?
**A.** 1.3

**Q.** What about the IC50 [8] of the same compound?
**A.** 4630 nM

**Q.** And the IC50 (CCRF-CEM [9])?
**A.** 70 nM

**Q.** What about the Activity (MX1 [10]) of the same compound?
**A.** Active

**Q.** What about the MTD [11] of the same compound?
**A.** 5 mg/kg

**Q.** And the “Ratio IC50” value (CCRF-CEM [21])?
**A.** 1.4

**Q.** What about the Activity (MX1 [12]) of the same compound?
**A.** Active

**Q.** And the IC50 [13]?
**A.** 42.6 µM

**Q.** What about the IC50 (PC-3 [15]) of the same compound?
**A.** 38.2 µM

**Q.** And the IC50 [16]?
**A.** 34.4 µM

**Q.** And the Activity (Nucleic Acid [17])?
**A.** Active

**Q.** And the IC50 (CCRF-CEM [18])?
**A.** 63 nM
